One data set concerns CCR2. The data set is described as follows: CCR2 expression in monocytic MDSCs (cDNA array, quantitative PCR, FACS). It counts as in vivo, mouse. The following applies: three days of treatment, 30 or 75 mg/kg/d orally, LLC mice. The source says: FIGS. 2A-2G. […] FACS and graphs showing percentages and absolute numbers of the donor-derived-cell subset (CD45.1^+ cells) in both lungs of the recipient LLC mice (n=3 mice per group). FIG. 2C: Cell-sorting schema for collecting monocytic MDSCs on day 3 after resection (left). Volcano plots showing differences in RNA expression of monocytic MDSCs from the bone marrow (BM) or lung between low-dose-AET-and vehicle-treated LLC mice (right) (n=3 biological replicates). FIG. 2D: Agilent cDNA array expression of chemokines and chemokine receptors in monocytic MDSCs from bone marrow or lungs of low-dose-AET-and vehicle-treated LLC mice (n=3 biological replicates). False-discovery-rate (FDR)-adjusted P values of CCR2 are 0.005 (bone marrow) and 0.016 (lung). Cxcr7 is also known as Ackr3. […] In the FACS plot, red represents low-dose AET and blue represents mock treatment. […]
FIGS. 10A-10H. […] CD45.1^+ cells (transferred polymorphonuclear MDSCs) were identified in the lungs of the recipient mice and analyzed by flow cytometry (right, n=3 mice per group). […] CD45.1^+ cells (transferred polymorphonuclear MDSCs) were identified in the lungs of the recipient CD45.2 mice and analyzed by flow cytometry at 18 h after transfer (right, n=3 mice per group). […] Gene-set enrichment P values, NES values and FDR values reported are calculated with 1,000 permutations in the GSEA software. […]

The conditions of data set [1]: cited from earlier work.

The structures appear in SMILES notation. Like-named read-outs stand apart in the source and are kept apart here.

The values below come from patent US20230310479A1, “LOW DOSE ADJUVANT EPIGENETIC CANCER THERAPY” (THE JOHNS HOPKINS UNIVERSITY, priority 2019, published 2023).

Consider `Cc1ccc2nc(NCCN)c3ncc(C)n3c2c1` [BMS-345541], for which the “expression of CCR2 in monocytic MDSCs from bone marrow in vivo” value in the data set on CCR2 was “decreased expression”.
In the case of `Nc1ncn([C@@H]2O[C@H](CO)[C@@H](O)[C@H]2O)c(=O)n1` [5-azacitidine, 4-amino-1-β-D-ribofuranozyl-s-triazin-2(1H)-one], the solubility result is listed as “insoluble” in data set [1] (in acetone, ethanol and methyl ketone); “soluble” in data set [1] (in dimethylsulfoxide (DMSO)); “slightly soluble” in data set [1] (in ethanol/water (50/50), propylene glycol and polyethylene glycol); “sparingly soluble” in data set [1] (in water, water-saturated octanol, 5% dextrose in water, N-methyl-2-pyrrolidone, normal saline and 5% Tween 80 in water).
